Laboratory results from ChEMBL document CHEMBL4411296, “Design and development of Isatin-triazole hydrazones as potential inhibitors of microtubule affinity-regulating kinase 4 for the therapeutic management of cell proliferation and metastasis” (Eur J Med Chem, 2019).
Activity calls are given as the source filed them. The rule behind the calls is not given here.

Assays:
[1] = tested on: OVCAR-3; assay: Growth inhibition of human OVCAR3 cells assessed as cell growth at 10 uM after 48 hrs by sulforhodamine B assay relative to control; format: functional; conditions: OVCAR-3, 48 h, read-out: Activity
[2] = tested on: DU-145; assay: Growth inhibition of human DU145 cells assessed as cell growth at 10 uM after 48 hrs by sulforhodamine B assay relative to control; format: functional; conditions: DU-145, 48 h, read-out: Activity
[3] = tested on: NCI-H23; assay: Growth inhibition of human NCI-H23 cells assessed as cell growth at 10 uM after 48 hrs by sulforhodamine B assay relative to control; format: functional; conditions: NCI-H23, 48 h, read-out: Activity
[4] = tested on: SR; assay: Growth inhibition of human SR cells assessed as cell growth at 10 uM after 48 hrs by sulforhodamine B assay relative to control; format: functional; conditions: read-out: Activity
[5] = tested on: 786-0; assay: Growth inhibition of human 786-0 cells assessed as cell growth at 10 uM after 48 hrs by sulforhodamine B assay relative to control; format: functional; conditions: 786-0, 48 h, read-out: Activity
[6] = tested on: MCF7; assay: Growth inhibition of human MCF7 cells assessed as cell growth at 10 uM after 48 hrs by sulforhodamine B assay relative to control; format: functional; conditions: MCF7, 48 h, read-out: Activity
[7] = target: Serine/threonine-protein kinase MARK1 (Homo sapiens) (UniProt Q9P0L2); assay: Inhibition of MARK1 (unknown origin) at 10 uM after 60 mins by ADP-Glo luminescence assay
[8] = tested on: U-251; assay: Growth inhibition of human U251 cells assessed as cell growth at 10 uM after 48 hrs by sulforhodamine B assay relative to control; format: functional; conditions: U-251, 48 h, read-out: Activity
[9] = tested on: MDA-MB-435S; assay: Induction of apoptosis in human MDA-MB-435S cells assessed as early apoptotic cells at IC50 after 24 hrs by Annexin V-FITC/propidium iodide staining-based flow cytometric analysis (reference value: 0.36%); format: functional
[10] = tested on: MCF7; assay: Induction of apoptosis in human MCF7 cells assessed as necrotic cells at IC50 after 24 hrs by Annexin V-FITC/propidium iodide staining-based flow cytometric analysis (reference value: 0.27%); format: functional
[11] = tested on: HepG2; assay: Antiproliferative activity against human HepG2 cells assessed as cell viability after 48 hrs by MTT assay; conditions: HepG2, 48 h
[12] = tested on: SK-MEL-28; assay: Growth inhibition of human SK-MEL-28 cells assessed as cell growth at 10 uM after 48 hrs by sulforhodamine B assay relative to control; format: functional; conditions: SK-MEL-28, 48 h, read-out: Activity
[13] = tested on: MDA-MB-468; assay: Growth inhibition of human MDA-MB-468 cells assessed as cell growth at 10 uM after 48 hrs by sulforhodamine B assay relative to control; format: functional; conditions: MDA-MB-468, 48 h, read-out: Activity
[14] = tested on: COLO 205; assay: Growth inhibition of human COLO205 cells assessed as cell growth at 10 uM after 48 hrs by sulforhodamine B assay relative to control; format: functional; conditions: COLO 205, 48 h, read-out: Activity
[15] = tested on: OVCAR-4; assay: Growth inhibition of human OVCAR4 cells assessed as cell growth at 10 uM after 48 hrs by sulforhodamine B assay relative to control; format: functional; conditions: OVCAR-4, 48 h, read-out: Activity
[16] = tested on: SW-620; assay: Growth inhibition of human SW620 cells assessed as cell growth at 10 uM after 48 hrs by sulforhodamine B assay relative to control; format: functional; conditions: SW-620, 48 h, read-out: Activity
[17] = tested on: UO-31; assay: Growth inhibition of human UO31 cells assessed as cell growth at 10 uM after 48 hrs by sulforhodamine B assay relative to control; format: functional; conditions: UO-31, 48 h, read-out: Activity
[18] = tested on: NCI-H522; assay: Growth inhibition of human NCI-H522 cells assessed as cell growth at 10 uM after 48 hrs by sulforhodamine B assay relative to control; format: functional; conditions: NCI-H522, 48 h, read-out: Activity
[19] = tested on: NCI-H322M; assay: Growth inhibition of human NCI-H322M cells assessed as cell growth at 10 uM after 48 hrs by sulforhodamine B assay relative to control; format: functional; conditions: read-out: Activity
[20] = tested on: HOP-92; assay: Growth inhibition of human HOP92 cells assessed as cell growth at 10 uM after 48 hrs by sulforhodamine B assay relative to control; format: functional; conditions: HOP-92, 48 h, read-out: Activity
[21] = tested on: MDA-MB-435S; assay: cells; conditions: Homo sapiens, 48 h
Description: Antiproliferative activity against human MDA-MB-435S cells assessed as cell viability after 48 hrs by MTT assay

[22] = tested on: UACC-257; assay: Growth inhibition of human UACC257 cells assessed as cell growth at 10 uM after 48 hrs by sulforhodamine B assay relative to control; format: functional; conditions: UACC-257, 48 h, read-out: Activity
[23] = tested on: K562; assay: Growth inhibition of human K562 cells assessed as cell growth at 10 uM after 48 hrs by sulforhodamine B assay relative to control; format: functional; conditions: K562, 48 h, read-out: Activity
[24] = tested on: T47D; assay: Growth inhibition of human T47D cells assessed as cell growth at 10 uM after 48 hrs by sulforhodamine B assay relative to control; format: functional; conditions: read-out: Activity
[25] = tested on: HEK293; assay: Antiproliferative activity against human HEK293 cells assessed as cell viability after 48 hrs by MTT assay; format: cell-based; conditions: HEK293, 48 h
[26] = tested on: A498; assay: Growth inhibition of human A498 cells assessed as cell growth at 10 uM after 48 hrs by sulforhodamine B assay relative to control; format: functional; conditions: A498, 48 h, read-out: Activity
[27] = tested on: SNB-75; assay: Growth inhibition of human SNB75 cells assessed as cell growth at 10 uM after 48 hrs by sulforhodamine B assay relative to control; format: functional; conditions: SNB-75, 48 h, read-out: Activity
[28] = tested on: SF-295; assay: Growth inhibition of human SF295 cells assessed as cell growth at 10 uM after 48 hrs by sulforhodamine B assay relative to control; format: functional; conditions: SF-295, 48 h, read-out: Activity
[29] = tested on: BT-549; assay: Growth inhibition of human BT549 cells assessed as cell growth at 10 uM after 48 hrs by sulforhodamine B assay relative to control; format: functional; conditions: BT-549, 48 h, read-out: Activity
[30] = tested on: CCRF-CEM; assay: Growth inhibition of human CCRF-CEM cells assessed as cell growth at 10 uM after 48 hrs by sulforhodamine B assay relative to control; format: functional; conditions: read-out: Activity
[31] = target: Serine/threonine-protein kinase Chk1 (Homo sapiens) (UniProt O14757); assay: Inhibition of CHK1 (unknown origin) at 10 uM after 60 mins by ADP-Glo luminescence assay
[32] = tested on: NCI-H226; assay: Growth inhibition of human NCI-H226 cells assessed as cell growth at 10 uM after 48 hrs by sulforhodamine B assay relative to control; format: functional; conditions: NCI-H226, 48 h, read-out: Activity
[33] = tested on: SK-OV-3; assay: Growth inhibition of human SKOV3 cells assessed as cell growth at 10 uM after 48 hrs by sulforhodamine B assay relative to control; format: functional; conditions: SK-OV-3, 48 h, read-out: Activity
[34] = tested on: MCF7; assay: Induction of apoptosis in human MCF7 cells assessed as viable cells at IC50 after 24 hrs by Annexin V-FITC/propidium iodide staining-based flow cytometric analysis (reference value: 98.4%); format: functional

Chain of Serine/threonine-protein kinase Chk1 (Homo sapiens) (O14757 whole entry): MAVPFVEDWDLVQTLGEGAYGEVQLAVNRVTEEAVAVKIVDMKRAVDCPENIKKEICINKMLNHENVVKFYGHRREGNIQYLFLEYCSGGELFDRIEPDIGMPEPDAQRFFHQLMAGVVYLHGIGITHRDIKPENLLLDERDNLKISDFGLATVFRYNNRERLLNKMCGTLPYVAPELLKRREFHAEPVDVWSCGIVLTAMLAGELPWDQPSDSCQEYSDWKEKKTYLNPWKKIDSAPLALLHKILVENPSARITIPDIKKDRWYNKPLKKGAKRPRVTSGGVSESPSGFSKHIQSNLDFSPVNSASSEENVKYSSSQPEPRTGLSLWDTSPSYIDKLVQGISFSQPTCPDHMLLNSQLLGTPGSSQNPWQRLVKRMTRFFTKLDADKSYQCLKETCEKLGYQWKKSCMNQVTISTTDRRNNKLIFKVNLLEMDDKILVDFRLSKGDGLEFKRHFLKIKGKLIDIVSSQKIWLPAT
Chain of Serine/threonine-protein kinase MARK1 (Homo sapiens) (Q9P0L2 whole entry, looked up): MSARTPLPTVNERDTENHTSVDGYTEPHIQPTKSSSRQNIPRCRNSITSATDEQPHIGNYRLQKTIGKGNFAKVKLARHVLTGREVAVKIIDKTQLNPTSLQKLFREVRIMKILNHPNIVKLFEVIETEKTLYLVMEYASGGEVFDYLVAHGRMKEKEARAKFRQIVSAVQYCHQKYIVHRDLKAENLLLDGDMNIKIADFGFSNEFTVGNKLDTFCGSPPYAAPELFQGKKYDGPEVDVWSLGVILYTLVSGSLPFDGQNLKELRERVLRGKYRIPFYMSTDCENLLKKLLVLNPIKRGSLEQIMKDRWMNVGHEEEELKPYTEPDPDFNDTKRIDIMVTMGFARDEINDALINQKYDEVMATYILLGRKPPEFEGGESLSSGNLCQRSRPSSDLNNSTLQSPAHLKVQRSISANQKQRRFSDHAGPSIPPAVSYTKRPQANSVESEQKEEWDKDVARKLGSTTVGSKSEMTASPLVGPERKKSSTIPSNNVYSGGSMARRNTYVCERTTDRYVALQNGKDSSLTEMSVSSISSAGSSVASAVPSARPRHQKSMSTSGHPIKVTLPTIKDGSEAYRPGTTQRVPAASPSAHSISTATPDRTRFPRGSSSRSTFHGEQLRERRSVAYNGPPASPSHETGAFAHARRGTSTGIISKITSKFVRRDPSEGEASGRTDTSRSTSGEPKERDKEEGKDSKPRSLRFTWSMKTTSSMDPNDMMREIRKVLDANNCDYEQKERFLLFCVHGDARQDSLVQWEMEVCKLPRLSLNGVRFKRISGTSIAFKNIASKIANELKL

COc1ccc(Cn2cc(C(=O)N/N=C3/C(=O)Nc4c(C)cccc43)nn2)cc1
growth at 10 µM [1]: 46.7% | growth at 10 µM [2]: 60.4% | growth at 10 µM [3]: 89.1% | growth at 10 µM [4]: 76.6% | growth at 10 µM [5]: 43.5% | growth at 10 µM [6]: 84.9% | inhibition [7]: inactive | growth at 10 µM [8]: 108% | Activity [9]: 30.9% | Activity [10]: 0.75% | IC50 [11]: 8.14 µM | growth at 10 µM [12]: 94.9% | growth at 10 µM [13]: 89.2% | growth at 10 µM [14]: 108% | growth at 10 µM [15]: -28.2% | growth at 10 µM [16]: 57.5% | growth at 10 µM [17]: 14.8% | growth at 10 µM [18]: 77.5% | growth at 10 µM [19]: 89.6% | growth at 10 µM [20]: 51.3% | IC50 [21]: 9.94 µM | growth at 10 µM [22]: 93.7% | growth at 10 µM [23]: 63.2% | growth at 10 µM [24]: 81% | IC50 [25]: 200 µM | growth at 10 µM [26]: 101% | growth at 10 µM [27]: 27.3% | growth at 10 µM [28]: 111% | growth at 10 µM [29]: 103% | growth at 10 µM [30]: 82.8% | inhibition [31]: inactive | growth at 10 µM [32]: 75.1% | growth at 10 µM [33]: 110% | Activity [34]: 52.6%
